Test [1] deals with T1, PI3K-α kinase (p110α/p85α) (Homo sapiens, UniProt P42336).
T1 construct: purchased Invitrogen PV4788
The experiment in a line: Determination of PI3K kinase activity (ADP Transcreener, fluorescence polarization). The note with it: ATP 10 μM. The test is classed as biochemical. On the technique in general: Fluorescence polarisation rises when a labelled molecule tumbles more slowly, as on binding a larger partner.

For test [2], the target named is T2, PI3K-β kinase (p110β/p85α) (Homo sapiens, UniProt P42338).
T2 construct: purchased Millipore 14-603
T2 sequence (P42338 whole entry): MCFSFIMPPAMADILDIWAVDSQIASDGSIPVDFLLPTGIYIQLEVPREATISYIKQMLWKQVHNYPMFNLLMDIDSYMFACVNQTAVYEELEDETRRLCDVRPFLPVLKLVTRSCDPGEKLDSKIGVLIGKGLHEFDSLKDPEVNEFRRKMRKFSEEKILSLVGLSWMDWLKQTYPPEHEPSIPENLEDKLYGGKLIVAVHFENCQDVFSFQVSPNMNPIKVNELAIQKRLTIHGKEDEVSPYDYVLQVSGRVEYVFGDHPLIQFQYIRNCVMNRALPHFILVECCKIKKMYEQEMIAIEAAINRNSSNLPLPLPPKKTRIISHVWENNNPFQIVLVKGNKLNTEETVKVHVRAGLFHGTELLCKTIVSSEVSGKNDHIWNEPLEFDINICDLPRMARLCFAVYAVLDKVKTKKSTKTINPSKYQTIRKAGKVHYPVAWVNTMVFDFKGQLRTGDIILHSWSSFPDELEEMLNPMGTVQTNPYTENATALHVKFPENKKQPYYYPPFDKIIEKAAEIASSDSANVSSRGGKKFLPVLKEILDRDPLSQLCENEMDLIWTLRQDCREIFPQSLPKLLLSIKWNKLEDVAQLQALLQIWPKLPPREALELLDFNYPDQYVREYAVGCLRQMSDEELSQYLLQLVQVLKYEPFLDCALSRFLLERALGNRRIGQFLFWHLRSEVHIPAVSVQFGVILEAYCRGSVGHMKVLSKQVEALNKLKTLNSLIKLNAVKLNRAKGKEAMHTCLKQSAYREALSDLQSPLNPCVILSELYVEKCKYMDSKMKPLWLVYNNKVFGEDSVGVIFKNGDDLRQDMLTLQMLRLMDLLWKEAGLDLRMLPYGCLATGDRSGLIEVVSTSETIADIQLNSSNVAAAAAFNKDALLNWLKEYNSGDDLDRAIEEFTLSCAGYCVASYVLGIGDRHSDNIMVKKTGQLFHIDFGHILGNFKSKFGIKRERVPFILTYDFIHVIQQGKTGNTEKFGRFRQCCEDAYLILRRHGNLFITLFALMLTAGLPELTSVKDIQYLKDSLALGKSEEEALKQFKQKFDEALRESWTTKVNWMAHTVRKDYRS
T2 sequence (P27986 whole entry partner): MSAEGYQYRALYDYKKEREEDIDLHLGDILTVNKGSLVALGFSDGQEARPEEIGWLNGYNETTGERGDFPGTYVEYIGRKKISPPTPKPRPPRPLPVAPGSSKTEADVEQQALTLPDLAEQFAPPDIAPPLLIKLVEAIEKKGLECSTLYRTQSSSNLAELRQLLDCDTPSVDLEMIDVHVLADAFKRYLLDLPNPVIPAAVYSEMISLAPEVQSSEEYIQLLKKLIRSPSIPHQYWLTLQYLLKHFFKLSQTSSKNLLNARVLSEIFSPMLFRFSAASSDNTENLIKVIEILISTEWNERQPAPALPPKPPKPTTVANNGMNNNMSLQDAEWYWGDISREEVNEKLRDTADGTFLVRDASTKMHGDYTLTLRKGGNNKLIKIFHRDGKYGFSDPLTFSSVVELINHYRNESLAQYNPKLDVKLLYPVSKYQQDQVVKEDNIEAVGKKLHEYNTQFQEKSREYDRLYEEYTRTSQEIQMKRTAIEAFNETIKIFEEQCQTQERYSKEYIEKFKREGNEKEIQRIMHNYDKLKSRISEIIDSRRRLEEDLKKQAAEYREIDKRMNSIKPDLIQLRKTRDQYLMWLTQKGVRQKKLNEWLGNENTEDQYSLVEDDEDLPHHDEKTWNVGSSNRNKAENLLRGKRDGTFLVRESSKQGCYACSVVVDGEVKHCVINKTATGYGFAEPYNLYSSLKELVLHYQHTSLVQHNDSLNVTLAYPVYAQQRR
The test is described as above. The test is classed as biochemical. The note with it: Table 1; ATP 10 μM; read-out: PI3K-β/nM (IC50 of inhibitory activity against PI3K kinase).

Test [3] has as its target T3, PI3K-δ kinase (p110δ/p85α) (Homo sapiens, UniProt O00329).
T3 construct: purchased Millipore 14-604M
The description is as above. The test is classed as biochemical. The note with it: Table 1; ATP 10 μM; read-out: PI3K-δ/nM (IC50 of inhibitory activity against PI3K kinase).

Test [4] deals with T4, PI3K-γ kinase (p110γ) (Homo sapiens, UniProt P48736).
T4 construct: purchased Invitrogen PV4786
T4 sequence (P48736 whole entry): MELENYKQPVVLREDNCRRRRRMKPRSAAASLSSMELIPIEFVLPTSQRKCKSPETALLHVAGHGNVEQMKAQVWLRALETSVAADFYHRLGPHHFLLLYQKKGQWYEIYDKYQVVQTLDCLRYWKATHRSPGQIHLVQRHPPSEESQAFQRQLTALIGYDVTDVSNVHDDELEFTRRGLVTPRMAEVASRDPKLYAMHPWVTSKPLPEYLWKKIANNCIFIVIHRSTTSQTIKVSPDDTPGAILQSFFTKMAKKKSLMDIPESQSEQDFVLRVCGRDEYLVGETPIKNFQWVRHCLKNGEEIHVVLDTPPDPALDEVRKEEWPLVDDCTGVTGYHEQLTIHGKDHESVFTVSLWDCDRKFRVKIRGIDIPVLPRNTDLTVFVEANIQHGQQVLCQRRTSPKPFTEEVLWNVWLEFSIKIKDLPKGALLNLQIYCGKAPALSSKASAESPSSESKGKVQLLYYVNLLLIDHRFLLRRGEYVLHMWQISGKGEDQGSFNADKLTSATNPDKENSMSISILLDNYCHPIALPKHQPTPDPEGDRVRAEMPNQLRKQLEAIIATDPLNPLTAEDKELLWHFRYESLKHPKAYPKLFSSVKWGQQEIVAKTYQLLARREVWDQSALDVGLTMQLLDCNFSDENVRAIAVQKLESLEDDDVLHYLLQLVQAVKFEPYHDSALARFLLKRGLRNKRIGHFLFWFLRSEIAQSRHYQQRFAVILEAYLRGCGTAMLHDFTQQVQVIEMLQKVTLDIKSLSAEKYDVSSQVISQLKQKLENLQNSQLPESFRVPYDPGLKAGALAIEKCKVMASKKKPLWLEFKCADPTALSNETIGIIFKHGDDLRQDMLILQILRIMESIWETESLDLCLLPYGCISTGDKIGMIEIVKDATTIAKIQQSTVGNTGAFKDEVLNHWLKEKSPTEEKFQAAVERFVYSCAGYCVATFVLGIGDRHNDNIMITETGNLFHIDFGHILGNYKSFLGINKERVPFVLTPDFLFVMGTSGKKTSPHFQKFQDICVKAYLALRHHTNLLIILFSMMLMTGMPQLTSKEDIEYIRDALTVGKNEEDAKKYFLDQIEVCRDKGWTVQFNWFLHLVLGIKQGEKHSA
Described as above. In kind it is biochemical. The note with it: Table 1; ATP 10 μM; read-out: PI3K-γ/nM (IC50 of inhibitory activity against PI3K kinase). How it is done:
The PI3K kinase used in the experiment: p110α/p85α (Invitrogen PV4788), p110β/p85α (Millipore 14-603), p110δ/p85α (Millipore 14-604M), and p110γ (Invitrogen PV4786).
The inhibition of PI3K kinase activity by the compound to be tested was determined by the following method. The working concentration of each component in the 25 μL enzyme reaction system was: p110α/p85α 3 ng (or p110β/p85α 60 ng, or p110δ/p85α 90 ng, or p110γ 100 ng), ATP 10 μM, PIP2: PS (Invitrogen PV5100) 30 μM and the DMSO concentration was 2% after addition of the compound to be tested.
At the time of the test, the compound to be tested was dissolved in dimethylsulfoxide (DMSO) according to the desired concentration of the experiment. The compound to be tested was gradiently diluted 3 times (0.00046-1 μM, 8 concentration points) with 10% DMSO. 5 μL of the compound to be tested was added to each well of a 96-well plate (Greiner 675076) in duplicate. 2.5× buffer was prepared and 1 μL of DTT (Millipore 20-265) was added to each 800 μL of 2.5× buffer. […] 10 μL of ATP/PIP2: PS and 10 μL of the PI3K enzyme working solution were added to each well in a 96-well plate. The plate was shaken and mixed uniformly, and then incubated at 25° C. for 1 hour. At the same time, ADP and ATP (0.01 μM, 0.02 μM, 0.04 μM, 0.06 μM, 0.08 μM[…], 0.1 μM, 0.25 μM, 0.5 μM, 1 μM, 2 μM, 5 μM, 10 μM, 12 concentration points) were diluted with buffer to set the standard curve. After completion of the enzyme reaction, 25 μL of ADP assay solution (1% 100×ADP tracer, 0.79% ADP antibody and 10% 10× reaction stop solution) was added and incubated at 25° C. for 1 hour. Fluorescence polarization value [mP] of each well was measured with a Perkin Elmer Victor X5 Fluorescent Microplate. The ADP concentration [ADP] was calculated from the ADP/ATP standard curve and the IC50 values were calculated using the XLFit software.

Test [5] relates to NIH3T3 cells. The experiment in a line: Cytotoxicity by MTT assay, NIH3T3. The test is classed as cell-based. The conditions noted are these: Mus musculus, NIH3T3, 72 h, cytotoxicity class, read-out: NIH3T3 cell (IC50/nM). As for the experimental part: The MTT assay procedure and steps were carried out as well known to those skilled in the art, and all the reagents used in the methods were commercially available.
(§1) The cells in logarithmic growth phase were digested with 0.25% EDTA trypsin (Gibco, 25200-056) and resuspended in fresh medium. 90 μL of the cell suspension was inoculated into a 96-well cell culture plate (BD Faclon 353072) with a suitable cell density and cultured at 37° C. under 5% CO2. After the cells adhered, 10 μL of the test compound at different concentrations (0.0046-10 μM, 8 concentration points) was added and incubated for another 72 h. 10 μL of MTT (5 mg/mL PBS solution) (Sigma, M5655) was added to react for 4 h. The absorbance at 492 nm was measured by using Thermo Scientific Multiskan MK3 microplate reader and IC50 was calculated using XLFIT 5.0 software (UK IDBS).

For test [6], the system named is T47D cells. In words: Cell inhibitory activity detected by MTT assay, T47D. The test is classed as cell-based. The note with it: Homo sapiens, T47D, 72 h, read-out: T47D cell (IC50/nM), cell growth inhibition. How it is done: as §1, with “The MTT assay procedure and steps were carried out as well known to those skilled in the art, and all the reagents used in the methods were commercially available. The cells” for “The cells”, “(UK IDBS). T47D cell culture medium: RPMI-1640 medium (Hyclone SH30809.01B)+10% FBS (Gibco 10099-141)” for “(UK IDBS).”
In general terms: Tetrazolium assays rely on reduction of a dye to a coloured formazan, in cell work by metabolically active cells.

The subject of test [7] is MCF-7 cells. The experiment in a line: Cell inhibitory activity detected by MTT assay, MCF-7. The conditions noted are these: Homo sapiens, MCF7, 72 h, read-out: MCF-7 cell (IC50/nM), cell growth inhibition. The test is classed as cell-based. How it is done: as §1, with “The MTT assay procedure and steps were carried out as well known to those skilled in the art, and all the reagents used in the methods were commercially available. The cells” for “The cells”, “(UK IDBS). MCF-7 cell culture medium: DMEM medium (Hyclone SH30243.01B+10% FBS (Gibco 10099-141)” for “(UK IDBS).”

The mark [8] stands for this setting: Table 1, read-out: PI3K-α/nM (IC50 of inhibitory activity against PI3K kinase).
The mark [9] stands for this setting: Table 2, read-out: PI3K-α/nM (IC50 of inhibitory activity against PI3K-α kinase).

Structures are written as SMILES. Read-outs that look alike come from different tables or passages of the source. A value given as a limit tells only on which side of the number the result lay.

T1 sequence (P42336 whole entry): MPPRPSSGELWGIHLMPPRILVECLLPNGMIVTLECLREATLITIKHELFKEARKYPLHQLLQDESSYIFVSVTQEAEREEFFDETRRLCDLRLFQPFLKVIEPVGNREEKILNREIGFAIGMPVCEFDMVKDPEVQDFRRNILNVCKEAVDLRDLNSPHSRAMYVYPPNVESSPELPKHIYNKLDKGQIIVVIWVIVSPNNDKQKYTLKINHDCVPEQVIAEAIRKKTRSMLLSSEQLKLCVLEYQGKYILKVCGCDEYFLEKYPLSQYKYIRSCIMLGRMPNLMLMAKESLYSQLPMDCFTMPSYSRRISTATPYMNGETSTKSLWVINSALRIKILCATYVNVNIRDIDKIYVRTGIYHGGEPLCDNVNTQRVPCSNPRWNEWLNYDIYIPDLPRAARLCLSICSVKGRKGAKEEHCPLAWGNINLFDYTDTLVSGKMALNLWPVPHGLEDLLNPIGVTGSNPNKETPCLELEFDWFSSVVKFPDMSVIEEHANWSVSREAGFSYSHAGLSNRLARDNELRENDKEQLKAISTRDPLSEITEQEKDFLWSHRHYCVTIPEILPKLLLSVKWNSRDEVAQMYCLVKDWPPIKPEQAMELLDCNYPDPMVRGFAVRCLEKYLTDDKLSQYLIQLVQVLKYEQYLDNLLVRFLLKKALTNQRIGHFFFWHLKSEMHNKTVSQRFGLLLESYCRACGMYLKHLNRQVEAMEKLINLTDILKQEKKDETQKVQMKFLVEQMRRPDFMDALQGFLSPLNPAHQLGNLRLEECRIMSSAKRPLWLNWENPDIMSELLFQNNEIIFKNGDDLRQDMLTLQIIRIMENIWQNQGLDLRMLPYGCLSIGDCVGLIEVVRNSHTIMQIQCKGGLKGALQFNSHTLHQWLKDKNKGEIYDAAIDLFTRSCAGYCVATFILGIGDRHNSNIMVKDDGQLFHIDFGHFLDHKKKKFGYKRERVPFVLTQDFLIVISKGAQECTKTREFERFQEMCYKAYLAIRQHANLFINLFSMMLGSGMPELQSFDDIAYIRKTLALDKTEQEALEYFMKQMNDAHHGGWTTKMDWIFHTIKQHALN
T1 sequence (P27986 whole entry partner): as the sequence (P27986 whole entry partner) above
T3 sequence (O00329 whole entry): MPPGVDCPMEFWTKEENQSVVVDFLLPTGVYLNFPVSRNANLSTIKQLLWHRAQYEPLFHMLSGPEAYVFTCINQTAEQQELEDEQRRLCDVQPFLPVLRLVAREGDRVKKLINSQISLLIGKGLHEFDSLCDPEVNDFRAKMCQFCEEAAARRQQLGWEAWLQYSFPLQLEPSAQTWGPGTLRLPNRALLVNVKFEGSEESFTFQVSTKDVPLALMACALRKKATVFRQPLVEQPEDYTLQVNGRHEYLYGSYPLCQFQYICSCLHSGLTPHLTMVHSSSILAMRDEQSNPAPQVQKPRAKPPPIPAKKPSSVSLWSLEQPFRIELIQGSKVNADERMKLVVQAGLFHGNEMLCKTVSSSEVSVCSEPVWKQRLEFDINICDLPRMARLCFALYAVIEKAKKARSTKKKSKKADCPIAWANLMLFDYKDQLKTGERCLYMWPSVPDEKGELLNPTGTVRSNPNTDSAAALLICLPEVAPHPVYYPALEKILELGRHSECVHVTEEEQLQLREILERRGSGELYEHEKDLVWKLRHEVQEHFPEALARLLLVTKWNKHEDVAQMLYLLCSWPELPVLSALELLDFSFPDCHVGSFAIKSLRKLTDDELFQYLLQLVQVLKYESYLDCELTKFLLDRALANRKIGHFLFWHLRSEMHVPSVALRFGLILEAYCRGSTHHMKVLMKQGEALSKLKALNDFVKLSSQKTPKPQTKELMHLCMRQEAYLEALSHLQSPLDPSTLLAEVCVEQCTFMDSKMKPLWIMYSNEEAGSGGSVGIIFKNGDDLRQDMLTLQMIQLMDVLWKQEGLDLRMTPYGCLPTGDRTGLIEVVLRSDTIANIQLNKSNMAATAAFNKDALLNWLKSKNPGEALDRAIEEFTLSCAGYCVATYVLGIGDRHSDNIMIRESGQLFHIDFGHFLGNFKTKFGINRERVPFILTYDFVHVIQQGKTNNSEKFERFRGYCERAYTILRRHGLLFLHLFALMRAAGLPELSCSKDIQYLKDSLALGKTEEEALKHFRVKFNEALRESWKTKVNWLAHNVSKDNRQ
T3 sequence (P27986 whole entry partner): as the sequence (P27986 whole entry partner) above

`CS(=O)(=O)C(F)c1cc(-c2cnc(N)cc2C(F)(F)F)nc(N2CCOCC2)n1` (stereo not drawn) [Compound S-52, 5-(6-(fluoro(methylsulfonyl)methyl)-2-morpholinopyrimidin-4-yl)-4-(trifluoromethyl)pyridin-2-amine]: the IC50 in test [1] (setting [8]) was 18 nM; in test [2] it was 2780 nM; in test [3], 336 nM; in test [4], 914 nM; in test [5], 3000 to 5000 nM.

For the compound `CC(C)S(=O)(=O)C(C)(C)c1cc(-c2cnc(N)cc2C(F)(F)F)nc(N2CCOCC2)n1` [Compound S-22], the IC50 is 55 nM in test [1] (setting [8]); 1540 nM in test [2]; 491 nM in test [3]; 2120 nM in test [4]; 1000 to 3000 nM in test [5].

For the compound `Nc1cc(C(F)(F)F)c(-c2cc(C3(C(=O)N4CCOCC4)CC3)nc(N3CCOCC3)n2)cn1` [Compound S-3, (1-(6-(6-amino-4-(trifluoromethyl)pyridin-3-yl)-2-morpholinopyrimidin-4-yl)cyclopropyl)(morpholino)ketone], the results for the IC50 in test [1] (setting [9]) and in test [5] were 280 nM and more than 10000 nM, respectively.

On to `CC(=O)NC1(c2cc(-c3cnc(N)cc3C(F)(F)F)nc(N3CCOCC3)n2)CC1` [Compound S-26, N-(1-(6-(6-amino-4-(trifluoromethyl)pyridin-3-yl)-2-morpholinopyrimidin-4-yl)cyclopropyl)acetamide], for which the results for the IC50 in test [1] (setting [9]) and in test [5] were 390 nM and more than 10000 nM, respectively.

`CS(=O)(=O)NC1(c2cc(-c3cnc(N)cc3C(F)(F)F)nc(N3CCOCC3)n2)CC1` [Compound S-24, N-(1-(6-(6-amino-4-(trifluoromethyl)pyridin-3-yl)-2-morpholinopyrimidin-4-yl)cyclopropyl)methanesulfon amide]: the IC50 in test [1] (setting [8]) is 10 nM; in test [2], 376 nM; in test [3] it was 85 nM; in test [4], 291 nM; in test [6], 305 nM; in test [5], 5000 to 10000 nM.

`C[C@H]1COCCN1c1nc(-c2cnc(N)cc2C(F)(F)F)cc(C2(S(C)(=O)=O)CC2)n1` [Compound S-6]: the IC50 in test [1] (setting [8]) is 16 nM; in test [4], 164 nM; in test [6], 129 nM; in test [7], 112 nM; in test [5], 1000 to 3000 nM.

For the compound `Nc1cc(C(F)(F)F)c(-c2cc(C3(S(=O)(=O)c4ccccc4)CC3)nc(N3CCOCC3)n2)cn1` [Compound S-25], the IC50 is 26 nM in test [1] (setting [8]); 217 nM in test [2]; 67 nM in test [3]; 1930 nM in test [4]; 324 nM in test [6]; 1000 to 3000 nM in test [5].

Regarding `CS(=O)(=O)C1(c2cc(-c3cnc(N)c(C(F)(F)F)c3)nc(N3CCOCC3)n2)CC1` [Compound S-44, 5-(6-(1-(methylsulfonyl)cyclopropyl)-2-morpholinopyrimidin-4-yl)-3-(trifluoromethyl)pyridin-2-amine], the IC50 in test [1] (setting [9]) was 858 nM; in test [5], 1000 to 3000 nM.

Take `CS(=O)(=O)C(F)(F)c1cc(-c2cnc(N)cc2C(F)(F)F)nc(N2CCOCC2)n1` [Compound S-53]: the IC50 is 33 nM in test [1] (setting [8]); 1550 nM in test [2]; 516 nM in test [3]; 287 nM in test [4]; 408 nM in test [7]; 1000 to 3000 nM in test [5].

In the case of `CCS(=O)(=O)C(C)(C)c1cc(-c2cnc(N)cc2C(F)(F)F)nc(N2CCOCC2)n1` [Compound S-29], the IC50 in test [2] is 1740 nM; in test [3], 612 nM; in test [4], 256 nM; in test [5] it was 1000 to 3000 nM.

In the case of `CN(C1(c2cc(-c3cnc(N)cc3C(F)(F)F)nc(N3CCOCC3)n2)CC1)S(C)(=O)=O` [Compound S-14, N-(1-(6-(6-amino-4-(trifluoromethyl)pyridin-3-yl)-2-morpholinopyrimidin-4-yl)cyclopropyl)-N-methylmethanesulfonamide], the IC50 in test [1] (setting [8]) was 13 nM; in test [2], 1120 nM; in test [6], 278 nM; in test [7], 267 nM; in test [5], 1000 to 3000 nM.

For `CCOC(=O)C1(c2cc(-c3cnc(N)cc3C(F)(F)F)nc(N3CCOCC3)n2)CC1` [Compound S-2], the results for the IC50 in test [1] (setting [9]) and in test [5] were 550 nM and 5000 to 10000 nM, respectively.

In the case of `Nc1cc(C(F)(F)F)c(-c2cc(C3(S(=O)(=O)c4cccc(F)c4)CC3)nc(N3CCOCC3)n2)cn1` [Compound S-57, 5-(6-(1-(3-fluorophenylsulfonyl)cyclopropyl)-2-morpholinopyrimidin-4-yl)-4-(trifluoromethyl)pyridin-2-amine], the IC50 in test [1] (setting [8]) turned out to be 18 nM; in test [2] it was 284 nM; in test [3] it was 62 nM; in test [4], 236 nM; in test [6], 242 nM; in test [7], 286 nM. The IC50 in test [5] is 1000 to 3000 nM.
